Reference: publication PMC3695784, “2,3-cis-2R,3R-(−)-epiafzelechin-3-O-p-coumarate, a novel flavan-3-ol isolated from Fallopia convolvulus seed, is an estrogen receptor agonist in human cell lines” (BMC Complementary and Alternative Medicine, 2013)
Values belong to the compound of their own block, whether it stands above or below them.

What was measured:
[1] = tested on: SKBR3 cells; assay: Control SKBR3 cells with ERE-Luc plasmid but not transfected with ER; format: cell-based, human; conditions: E2 10 nM, 24 h
Protocol: SKBR3 cells were transfected with 0 .2 µ g ERE-Luc plasmid, 0.05 µ g of either pcDNA3ERα or pcDNA3ERβ, and 0.55 µg pcDNA3.1+. Control SKBR3 cells were transfected with 0.2 µ g ERE-Luc plasmid and 0.6 µ g pcDNA3.1+. Cells were treated for 24 h, lysed, and luciferase activity assessed. Luciferaseexpression was normalized using the Bradford assay.

[2] = tested on: ERα or ERβ; conditions: E2 standard set as 100%; cited from earlier work
[3] = target: T1, human ERβ (Homo sapiens, UniProt Q92731); assay: SKBR3 cells transiently transfected with ERβ and ER-responsive luciferase reporter; format: cell-based; conditions: for maximum luciferase induction, percent of maximum E2 activity: ERβ-transfected SKBR3, 10 nM E2 = 100%, normalized to protein
T1 construct: human ERβ segment (530 aa, GenBank: AF051427.1); expressed in transfected cells; host or cells: SKBR3 (human breast carcinoma), transient transfection with ERβ/pcDNA3
Excerpt: (§1) The human ERβ expression plasmid (ERβ/pcDNA3) was constructed by PCR amplification of the human ERβ segment (530 aa, GenBank: AF051427.1) out of pCMV5 (kindly provided by Dr. John Katzenellenbogen, University of Illinois) and insertion of this fragment at BstEII and AflII restriction sites into the modified pcDNA3 construct, which was previously described. […] The human ERα expression plasmid, pcDNA3.1 + ERα, was purchased from Missouri S&T cDNA Resouce Center and was confirmed by restriction digestion. […] The generated plasmids were verified by DNA sequencing. Plasmids ERβ/pcDNA3 and ERα/pcDNA3were used as templates for in vitro expression (Additional file 2); ERα and ERβ were synthesized in vitro using the TNT Quick coupled transcription/translation rabbit reticulocyte lysate system (Promega). Briefly, ^35S-Radiolabeled hERα and hERβ were synthesized in separate reactions in vitro according to manufacturer’s protocol, denatured, and subjected to SDS-polyacrylamide gel electrophoresis, and the kDa of each protein was determined by autoradiography of the dried gel.
(§2) Protein concentration was determined using the Bradford assay.
(§3) Luciferase activity was expressed as relative light units (RLU) for assays using BG1Luc4E2 cells or as a ratio of luciferase RLU/mg protein for assays using SKBR3 cells. Protein amount (mg) was calculated from concentrations obtained in Bradford assay and the respective luciferase RLU was divided by mg protein to obtain luciferase RLU/mg protein. Average luciferase RLU (or luciferase RLU/mg protein) values were calculated from triplicate wells. Solvent luciferase RLU (or luciferase RLU/mg) was subtracted from luciferase RLU induced by chemical. In the case of extract and fractions, luciferase RLU induced by method blank was subtracted from luciferase RLU induced by extract or fraction. […] The Student’s t-test (2-tailed, paired) was used to establish significant difference of chemical/fraction/extract activity from that of solvent or method blank (p ≤ 0.05), and dose–response curves were fitted using a sigmoidal Hill’s 4-parameter algorithm (SigmaPlot v.9.0, Systat, San Jose, CA), as described previously. Half-maximal inductions of each treatment (EC50) were determined as described in [34].

[4] = tested on: SKBR3 cells; assay: Toxicity observed in transfected SKBR3 cells (protein concentration, RLU, cell death)
Protocol: SKBR3 cells were grown and maintained in high-glucose DMEM and 10% premium FBS. SKBR3 cells were cultured in phenol red-free medium supplemented with 10% charcoal-stripped FBS for 48 h before transfection and seeded in 24-well plates at a density of 300,000 cells/mL. 24 h after plating, cells were transfected for 24 h using Lipofectamine reagent (2 μL/well) according to the manufacturer’s recommendations (0.2 μg of ER-responsive reporter plasmid pGudLuc7ere [32] and 0.05 μg receptor plasmids (ERα/pcDNA3 or ERβ/pcDNA3) or empty vector (pcDNA3.1+) per well, normalizing μg DNA/well to 0.8 μg/well with empty vector). 24 h post-transfection, SKBR3 cells were incubated for 24 h with chemical, the cells harvested, and both protein concentration and luciferase activity determined. Protein concentration was determined using the Bradford assay [35]. Briefly, 5 μL/well SKBR3 lysate was incubated for 5 min at room temperature with 1X Bradford Reagent (200 μL). Protein concentration was calibrated against a standard curve of bovine serum albumin (0.05-0.5 mg/mL) on the same plate and was measured as mg protein/mL using a PhosphorImager (Molecular Dynamics).

[5] = tested on: ERα or ERβ; conditions: greater in ERβ; cited from earlier work
[6] = target: human ERα (Homo sapiens, UniProt P03372); assay: SKBR3 cells transiently transfected with ERα and ER-responsive luciferase reporter; format: cell-based
Excerpt: as §1, §2
Luciferase activity was expressed as relative light units (RLU) for assays using BG1Luc4E2 cells or as a ratio of luciferase RLU/mg protein for assays using SKBR3 cells. Protein amount (mg) was calculated from concentrations obtained in Bradford assay and the respective luciferase RLU was divided by mg protein to obtain luciferase RLU/mg protein. Average luciferase RLU (or luciferase RLU/mg protein) values were calculated from triplicate wells. Solvent luciferase RLU (or luciferase RLU/mg) was subtracted from luciferase RLU induced by chemical. In the case of extract and fractions, luciferase RLU induced by method blank was subtracted from luciferase RLU induced by extract or fraction. […] Half-maximal inductions of each treatment (EC50) were determined as described in [34].

[7] = target: T2, estrogen receptor (Homo sapiens, UniProt P03372); assay: BG1Luc4E2 stably transfected estrogen-responsive luciferase reporter bioassay; format: cell-based
T2 construct: the BG1Luc4E2 cell line endogenously expresses ERα; endogenous in cells; host or cells: BG1Luc4E2 (human ovarian carcinoma, stably transfected ERE-luciferase reporter)
Protocol: as §2, §3

[8] = tested on: BG1Luc4E2 cells; assay: Cell death/toxicity observed in BG1Luc4E2 bioassay; format: cell-based, human
Protocol: Method blank treatments were included if applicable. […] Protein concentration was determined using the Bradford assay.

T2 sequence (P03372 whole entry): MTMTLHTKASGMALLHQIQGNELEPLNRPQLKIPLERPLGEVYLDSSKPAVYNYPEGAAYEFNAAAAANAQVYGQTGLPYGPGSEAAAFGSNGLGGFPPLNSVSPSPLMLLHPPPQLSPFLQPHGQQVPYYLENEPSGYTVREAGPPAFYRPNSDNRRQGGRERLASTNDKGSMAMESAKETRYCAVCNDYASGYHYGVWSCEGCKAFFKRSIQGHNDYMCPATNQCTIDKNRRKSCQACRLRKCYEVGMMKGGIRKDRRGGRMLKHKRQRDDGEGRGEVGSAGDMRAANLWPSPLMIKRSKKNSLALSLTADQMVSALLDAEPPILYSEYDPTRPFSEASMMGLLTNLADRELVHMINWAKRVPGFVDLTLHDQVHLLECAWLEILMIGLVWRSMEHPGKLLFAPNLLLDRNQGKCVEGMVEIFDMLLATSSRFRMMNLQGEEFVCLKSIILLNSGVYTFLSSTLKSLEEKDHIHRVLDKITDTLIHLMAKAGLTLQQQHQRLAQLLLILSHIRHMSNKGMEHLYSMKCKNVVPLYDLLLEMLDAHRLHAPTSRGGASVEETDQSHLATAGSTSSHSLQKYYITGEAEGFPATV
T1 sequence (Q92731 whole entry): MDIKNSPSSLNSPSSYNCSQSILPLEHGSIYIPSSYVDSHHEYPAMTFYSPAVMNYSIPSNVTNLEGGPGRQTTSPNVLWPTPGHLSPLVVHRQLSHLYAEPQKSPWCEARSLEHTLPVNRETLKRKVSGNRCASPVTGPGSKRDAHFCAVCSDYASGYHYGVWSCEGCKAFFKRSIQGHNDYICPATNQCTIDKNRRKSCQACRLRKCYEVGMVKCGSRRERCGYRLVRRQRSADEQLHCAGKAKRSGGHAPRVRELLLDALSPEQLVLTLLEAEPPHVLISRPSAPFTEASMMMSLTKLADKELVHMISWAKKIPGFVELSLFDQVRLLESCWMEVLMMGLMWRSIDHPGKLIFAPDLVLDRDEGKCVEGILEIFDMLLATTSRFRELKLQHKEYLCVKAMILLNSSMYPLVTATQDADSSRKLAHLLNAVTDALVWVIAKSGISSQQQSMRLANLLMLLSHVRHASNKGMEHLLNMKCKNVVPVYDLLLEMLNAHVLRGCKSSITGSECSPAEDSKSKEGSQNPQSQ
Sequence of human ERα (P03372 311-547): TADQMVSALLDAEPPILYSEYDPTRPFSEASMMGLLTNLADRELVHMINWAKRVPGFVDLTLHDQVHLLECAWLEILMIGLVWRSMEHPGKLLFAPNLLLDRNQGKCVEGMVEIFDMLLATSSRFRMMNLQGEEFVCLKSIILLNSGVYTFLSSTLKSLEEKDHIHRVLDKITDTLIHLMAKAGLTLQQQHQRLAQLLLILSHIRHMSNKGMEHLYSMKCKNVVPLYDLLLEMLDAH

SMILES: C[C@]12CC[C@@H]3c4ccc(O)cc4CC[C@H]3[C@@H]1CC[C@@H]2O [E2, 17-β-estradiol]
luciferase expression in cells not transfected with ER [1]: do not express luciferase

SMILES: COc1ccc(-c2coc3cc(O)cc(O)c3c2=O)cc1 [biochanin A]
relative binding affinity, ERβ versus ERα [2]: greater to ERβ than to ERα

SMILES: O=c1oc2cc(O)ccc2c2oc3cc(O)ccc3c12 [coumestrol]
relative binding affinity, ERβ versus ERα [2]: greater to ERβ than to ERα

SMILES: O=c1c(-c2ccc(O)cc2)coc2cc(O)ccc12 [diadzein]
relative binding affinity, ERβ versus ERα [2]: greater to ERβ than to ERα

SMILES: Cc1cc(O)c2c(c1)C(=O)c1cc(O)cc(O)c1C2=O [emodin, reference compound]
maximum luciferase induction, percent of maximum E2 activity [3]: 127 ± 26%
EC50 ([3]; SKBR3 (ERβ), luciferase, 24 h, read-out: EC50 (concentration for half-maximal induction)): 3 µM
concentrations toxic to SKBR3 cells [4]: greater than 10 μM
REP in ERβ-transfected versus ERα-transfected yeast cells [5]: approximately one order of magnitude

SMILES: O=c1c(-c2ccc(O)cc2)coc2cc(O)cc(O)c12 [genistein, reference compound]
concentrations resulting in significantly decreased RLU [4]: greater than 10 μM

maximum luciferase induction, percent of maximum E2 activity ([6]; ERα-transfected SKBR3, 10 nM E2 = 100%, normalized to protein): 78 ± 8%
REP (relative estrogenic potency = EC50 E2/EC50 chemical) ([6]; SKBR3 (ERα)): 3.4 × 10^-6
EC50 ([6]; SKBR3 (ERα), luciferase, 24 h, read-out: EC50 (concentration for half-maximal induction)): 5.8 µM
EC50 ([7]; BG1Luc4E2 (ovarian), luciferase, 24 h, read-out: EC50 (concentration for half-maximal induction)): 120 µM
concentrations resulting in no luciferase induction ([7]; BG1Luc4E2 cells): below 31.6 μM
orders of magnitude weaker in potency than the E2 standard ([7]; BG1Luc4E2 cells): approximately 7 orders of magnitude
maximum luciferase induction, percent of maximum E2 activity ([7]; BG1Luc4E2 cells, 1 nM E2 = 100%, 24 h): > 400%
luciferase induction, percent of maximum E2 activity ([7]; BG1Luc4E2 cells, 119 μM and 158 μM, superinduction): > 400%
maximum luciferase induction, percent of maximum E2 activity [3]: 80 ± 10%
REP (relative estrogenic potency = EC50 E2/EC50 chemical) ([3]; SKBR3 (ERβ)): 1.5 × 10^-5
SMILES: O=C(C=Cc1ccc(O)cc1)OC1Cc2c(O)cc(O)cc2OC1c1ccc(O)cc1 [rhodoeosein, 2,3-cis-(2R,3R)-(−)-epiafzelechin-3-O-p-coumarate]
concentrations that killed BG1Luc4E2 cells ([8]; 24 h incubation): ≥ 250 µM
effect on cells at 0.25, 0.316, and 1 mM ([8]; BG1Luc4E2 cells): caused cell death
toxicity at 197 μM ([8]; BG1Luc4E2 cells, 197 μM): no toxicity
concentrations resulting in significantly decreased protein concentration [4]: greater than 100 μM
effect on cells at 0.316 mM [4]: caused cell death
